For the assay, the target named is Plk1 (Homo sapiens, UniProt P53350). Nature of the assay: biochemical.

A value given as a limit tells only on which side of the number the result lay.

Chain of Plk1 (P53350 20-338): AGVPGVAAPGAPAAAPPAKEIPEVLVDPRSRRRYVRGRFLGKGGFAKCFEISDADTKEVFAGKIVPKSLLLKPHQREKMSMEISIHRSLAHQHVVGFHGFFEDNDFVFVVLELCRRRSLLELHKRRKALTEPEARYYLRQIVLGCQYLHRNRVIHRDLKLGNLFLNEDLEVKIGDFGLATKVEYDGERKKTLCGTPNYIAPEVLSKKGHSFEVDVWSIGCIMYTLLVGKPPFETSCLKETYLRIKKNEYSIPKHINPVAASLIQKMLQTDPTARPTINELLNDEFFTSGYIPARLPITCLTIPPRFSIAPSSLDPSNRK

One may read the Ki as the equilibrium dissociation constant of an inhibitor or competing ligand from its target. High values mean weaker binding, low ones tighter binding. Take `COc1cc(C(=O)NC(C)(C)CO)ccc1Nc1ncc2c(n1)N(C1CCCC1)CC(C)(C)C(=O)N2C` [Compound I-240, 4-(9-cyclopentyl-5,7,7-trimethyl-6-oxo-6,7,8,9-tetrahydro-5H-pyrimido[4,5-b][1,4]diazepin-2-ylamino)-N-(1-hydroxy-2-methylpropan-2-yl)-3-methoxybenzamide]: the Ki is less than 10 nM.

Consider `COc1cc(C(=O)NCCCO)ccc1Nc1ncc2c(n1)N(C1CCCC1)CC(C)(C)C(=O)N2C` [Compound I-241], for which the Ki was less than 10 nM. The figure for `COc1cc(C(=O)NC[C@H](O)CO)ccc1Nc1ncc2c(n1)N(C1CCCC1)CC(C)(C)C(=O)N2C` [Compound I-242, (S)-4-(9-cyclopentyl-5,7,7-trimethyl-6-oxo-6,7,8,9-tetrahydro-5H-pyrimido[4,5-b][1,4]diazepin-2-ylamino)-N-(2,3-dihydroxypropyl)-3-methoxybenzamide] is less than 10 nM. The figure for `COc1cc(C(=O)NCCC(C)O)ccc1Nc1ncc2c(n1)N(C1CCCC1)CC(C)(C)C(=O)N2C` (centres unmarked) [Compound I-243, 4-(9-cyclopentyl-5,7,7-trimethyl-6-oxo-6,7,8,9-tetrahydro-5H-pyrimido[4,5-b][1,4]diazepin-2-ylamino)-N-(3-hydroxybutyl)-3-methoxybenzamide] is less than 10 nM; for `COc1cc(C(=O)N[C@@H]2CCC[C@H]2O)ccc1Nc1ncc2c(n1)N(C1CCCC1)CC(C)(C)C(=O)N2C` [Compound I-244, 4-(9-cyclopentyl-5,7,7-trimethyl-6-oxo-6,7,8,9-tetrahydro-5H-pyrimido[4,5-b][1,4]diazepin-2-ylamino)-N-((1R,2R)-2-hydroxycyclopentyl)-3-methoxybenzamide] it is less than 10 nM; for `COc1cc(C(=O)NCC2CC2(F)F)ccc1Nc1ncc2c(n1)N(C1CCCC1)CC(C)(C)C(=O)N2C` (centres unmarked) [Compound I-245, 4-(9-cyclopentyl-5,7,7-trimethyl-6-oxo-6,7,8,9-tetrahydro-5H-pyrimido[4,5-b][1,4]diazepin-2-ylamino)-N-((2,2-difluorocyclopropyl)methyl)-3-methoxybenzamide] it is less than 10 nM. Under `COc1cc(C(=O)NCC2CCC2)ccc1Nc1ncc2c(n1)N(C1CCCC1)CC(C)(C)C(=O)N2C` [Compound I-246, N-(cyclobutylmethyl)-4-(9-cyclopentyl-5,7,7-trimethyl-6-oxo-6,7,8,9-tetrahydro-5H-pyrimido[4,5-b][1,4]diazepin-2-ylamino)-3-methoxybenzamide] stands less than 10 nM. With `COc1cc(C(=O)NCc2ccncc2)ccc1Nc1ncc2c(n1)N(C1CCCC1)CC1(CC1)C(=O)N2C` [Compound I-247, 4-(9′-cyclopentyl-5′-methyl-6′-oxo-5′,6′,8′,9′-tetrahydrospiro[cyclopropane-1,7′-pyrimido[4,5-b][1,4]diazepine]-2′-ylamino)-3-methoxy-N-(pyridin-4-ylmethyl)benzamide], the Ki is less than 10 nM.

`COc1cc(C(=O)NCc2ccco2)ccc1Nc1ncc2c(n1)N(C1CCCC1)CC1(CC1)C(=O)N2C` [Compound I-248, 4-(9′-cyclopentyl-5′-methyl-6′-oxo-5′,6′,8′,9′-tetrahydrospiro[cyclopropane-1,7′-pyrimido[4,5-b][1,4]diazepine]-2′-ylamino)-N-(furan-2-ylmethyl)-3-methoxybenzamide] showed a Ki of less than 10 nM.

For the compound `COc1cc(C(=O)NCc2cccnc2)ccc1Nc1ncc2c(n1)N(C1CCCC1)CC1(CC1)C(=O)N2C` [Compound I-249, 4-(9′-cyclopentyl-5′-methyl-6′-oxo-5′,6′,8′,9′-tetrahydrospiro[cyclopropane-1,7′-pyrimido[4,5-b][1,4]diazepine]-2′-ylamino)-3-methoxy-N-(pyridin-3-ylmethyl)benzamide], the Ki was less than 10 nM. The figure for `COc1cc(-c2ncc[nH]2)ccc1Nc1ncc2c(n1)N(C1CCCC1)CC(C)(C)C(=O)N2C` [Compound I-250, 2-(4-(1H-imidazole-2-yl)-2-methoxyphenylamino)-9-cyclopentyl-5,7,7-trimethyl-8,9-dihydro-5H-pyrimido[4,5-b][1,4]diazepin-6(7H)-one] is less than 10 nM.

The record behind these values is patent US8394952B2 (Vertex Pharmaceuticals Incorporated, priority 2006, dated 2013).
